A word on the IC50: it is the concentration at which inhibition is half-maximal.

These results are taken from patent publication US20250073249A1, “STEROID COMPOUND, AND PREPARATION METHOD THEREFOR AND USE THEREOF” (SHANGHAI INSTITUTE OF MATERIA MEDICA, CHINESE ACADEMY OF …, priority 2022, published 2025).

Substitutions are numbered along the chain they refer to.

The target of one assay is T1, wild-type AR (Homo sapiens, UniProt P10275).
T1 construct: expressed in transfected cells; host or cells: HEK293
T1 sequence (P10275 1-920): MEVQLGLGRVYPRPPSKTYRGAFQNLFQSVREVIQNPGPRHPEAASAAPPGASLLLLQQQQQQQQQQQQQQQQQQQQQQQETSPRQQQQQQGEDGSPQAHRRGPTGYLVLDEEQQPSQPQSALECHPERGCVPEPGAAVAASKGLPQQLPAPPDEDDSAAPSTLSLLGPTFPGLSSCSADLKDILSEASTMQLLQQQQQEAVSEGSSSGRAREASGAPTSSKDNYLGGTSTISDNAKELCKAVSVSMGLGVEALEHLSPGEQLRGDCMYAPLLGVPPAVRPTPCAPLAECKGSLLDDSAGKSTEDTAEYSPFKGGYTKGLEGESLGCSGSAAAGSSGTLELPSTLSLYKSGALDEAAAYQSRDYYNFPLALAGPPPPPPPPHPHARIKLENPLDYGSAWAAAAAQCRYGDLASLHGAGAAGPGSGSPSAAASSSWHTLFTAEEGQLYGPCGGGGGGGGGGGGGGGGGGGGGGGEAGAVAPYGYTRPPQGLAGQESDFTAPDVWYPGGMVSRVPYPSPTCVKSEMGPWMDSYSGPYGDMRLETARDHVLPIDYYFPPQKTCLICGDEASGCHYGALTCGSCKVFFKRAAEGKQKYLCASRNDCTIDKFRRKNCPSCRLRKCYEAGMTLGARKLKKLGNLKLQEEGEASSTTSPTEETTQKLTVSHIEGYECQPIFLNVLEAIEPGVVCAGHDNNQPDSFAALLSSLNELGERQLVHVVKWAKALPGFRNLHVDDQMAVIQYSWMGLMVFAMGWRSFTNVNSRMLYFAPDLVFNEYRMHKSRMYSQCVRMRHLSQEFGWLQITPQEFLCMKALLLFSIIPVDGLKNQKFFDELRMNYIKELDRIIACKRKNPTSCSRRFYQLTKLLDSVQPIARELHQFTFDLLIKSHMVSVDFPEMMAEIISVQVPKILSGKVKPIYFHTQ
The assay can be described thus: Wild-type AR antagonist activity test (luciferase reporter in HEK293 cells). In kind it is cell-based. To be noted: for IC50: HEK293 cells, luciferase expression, DHT 1.5 nM, 24 hours; for AR antagonist activity, times higher than that of the control enzalutamide: ratio to enzalutamide IC50. The method, then:
HEK293 cells were cultured in DMEM containing 10% fetal bovine serum (FBS) at 37° C. with 5% CO2. The cells were then digested with trypsin and counted. A 10 μL/well transfection solution was prepared in opti-MEM containing 5 ng androgen receptor clone, 100 ng pGL4.36 vector, and 315 nL fugene. […] The diluted cell suspension was seeded into 96-well plates at 90 μL (40,000 cells/well), and the plates were incubated for 24 hours. Then, 10 μL of drug solution (including gradient diluted compounds or DMSO) was added, and the plates were incubated for 30 minutes. […] After 24 hours of incubation, 100 μL of Steady-Glo was added to each well of the plate, the plate was shaken at room temperature for 20 minutes, and read on an Envision.
Background: Reporter assays use an easily measured gene product as a stand-in for the process of interest.

In another assay the target is T2, AR(F876L) (Homo sapiens, UniProt P10275, F877L).
T2 construct: expressed in transfected cells; host or cells: HEK293
T2 sequence (P10275 1-920 F877L): T1 sequence (P10275 1-920) with F877L
The experiment in a line: Mutant AR antagonistic activity test, F876L (reporter gene in HEK293 cells). Format: cell-based. The settings on record: DHT 10 nM, 24 hours, read-out: F876L IC50(nM) 2nd gen AR antagonist resistant mutation. The method, then: HEK293 cells were cultured in DMEM supplemented with 10% FBS and 1% GlutaMax at 37° C. with 5% CO2. The day before transfection, the medium was changed to DMEM containing 10% charcoal-stripped FBS and 1% GlutaMax. […] The cell suspension was diluted with cell seeding solution, and the transfection reagent was added to achieve 500,000 cells/mL. Subsequently, 90 μL of cell suspension was seeded into each well of the assay plate. The next day, compounds were prepared: starting from 8 mM, 3-fold serial dilutions were performed in DMSO for a total of 8 points, then 500 nL was transferred to the compound plate using Echo. The compounds were then diluted with 40 μL of medium to 10× final concentration, and 10 μL was transferred to the cell plate and incubated at 37° C. for 30 minutes. Subsequently, 10 nL of DHT at a final concentration of 10 nM was transferred to each well of the assay plate using TECAN. After 24 hours of incubation, 100 μL of Steady-Glo was added to the assay plate and read on an Envision reader. Data were determined and analyzed using GraphPad Prism.

On to `Cc1cn(C2=CCC3C4CC=C5C[C@@H](NC(=O)c6ccc(F)cc6F)CC[C@]5(C)C4CC[C@]23C)cn1` (stereo partly drawn) [Compound 37, N-((3S,10R,13S)-17-(4-methyl-1H-imidazol-1-yl)-10,13-dimethyl-2,3,4,7,8,9,10,11,12,13,14,15-dodecahydro-1H-cyclopenta[a]phenanthren-3-yl)-2,4-difluorobenzamide], for which the IC50 on wild-type AR was 235 nM; on AR(F876L) it was 273 nM. Also, the “AR antagonist activity, times higher than that of the control enzalutamide” value (“AR antagonist activity” for short) at wild-type AR stood at 1.9 times.

Consider `Cc1cn(C2=CCC3C4CC=C5C[C@@H](NC(=O)c6ccc(F)cc6)CC[C@]5(C)C4CC[C@]23C)cn1` (stereo partly drawn) [Compound 33, N-((3S,10R,13S)-17-(4-methyl-1H-imidazol-1-yl)-10,13-dimethyl-2,3,4,7,8,9,10,11,12,13,14,15-dodecahydro-1H-cyclopenta[a]phenanthren-3-yl)-4-fluorobenzamide], for which, at wild-type AR, the IC50 was determined as 120 nM and the “AR antagonist activity” value stood at 3.6 times. The half-maximal inhibitory concentration (IC50) at AR(F876L) was 390 nM.

Take `Cc1cn(C2=CCC3C4CC=C5C[C@@H](NC(=O)c6ccncc6)CC[C@]5(C)C4CC[C@]23C)cn1` (stereo partly drawn) [Compound 14, N-((3S,10R,13S)-10,13-dimethyl-17-(4-methyl-1H-imidazol-1-yl)-2,3,4,7,8,9,10,11,12,13,14,15-dodecahydro-1H-cyclopenta[a]phenanthren-3-yl)isonicotinamide]: the results for the half-maximal inhibitory concentration (IC50) on wild-type AR and at AR(F876L) were 247 nM and 268 nM, respectively. On wild-type AR, the “AR antagonist activity” value stood at 1.8 times.

As to `Cc1cn(C2=CCC3C4CC=C5C[C@@H](NC(=O)c6ccc(S(C)(=O)=O)cc6)CC[C@]5(C)C4CC[C@]23C)cn1` (stereo partly drawn) [Compound 35, N-((3S,10R,13S)-17-(4-methyl-1H-imidazol-1-yl)-10,13-dimethyl-2,3,4,7,8,9,10,11,12,13,14,15-dodecahydro-1H-cyclopenta[a]phenanthren-3-yl)-4-(methylsulfonyl)benzamide], the figures for the half-maximal inhibitory concentration (IC50) at wild-type AR and at AR(F876L) were 433 nM and 326 nM, respectively.
